Read-outs that look alike come from different tables or passages of the source. Where no end group is shown, it is not given here.
Experiments:
Test in all cases: Direct-binding FRET assay
BACH1 = BACH1 (Homo sapiens, UniProt O14867); design: made in house
Description: (§1) The direct binding assay was performed manually in 384-well plates and is similar to a previously described assay. Wells were filled with 20 μL of 1 mM TCEP-HCl. A 4 μM stock of acceptor protein was made fresh in 1 mM TCEP-HCl, and 20 μL was titrated in 2-fold dilutions over the wells. […] The direct-binding FRET data were fit as previously described. Briefly, the Kd of the designed peptide homodimer was experimentally determined and used with previously determined target homodimer Kd values to determine the heterodimer Kd. The homodimer Kd values used for the human bZIPs were from; experiments done by […] et al. used the same protein constructs for the human bZIP proteins, the same buffer conditions, and the same assay. The fitting used a system of ordinary differential equations to describe the concentrations of homo and heterodimers formed by the donor (D) and acceptor (A) as a function of the heterodimer Kd. MATLAB was used to simulate the binding experiment for different Kd values, and the value that gave the best agreement between simulation and experiment was assigned. A minimum 15% change in the donor fluorescence upon titrating the acceptor peptide from 0 to 1000 nM was required for a fit to be attempted. If this minimum was not met, the interaction was classified as “NS” for no signal change. […] These interactions were marked “AS” to indicate anomalous signal. We attributed this to interactions between the peptides, the dyes and the walls of the assay plates at low concentrations. These curves could not be fit, given their unusual shapes at low concentrations of acceptor. For such curves, we removed the first five points and re-fit the data. […] One example of this is increasing concentrations of acceptor causing an increase in donor fluorescence.

MAF = MAF (Homo sapiens, UniProt O75444); design: made in house
Chain of MAF (O75444 288-351 limits assumed): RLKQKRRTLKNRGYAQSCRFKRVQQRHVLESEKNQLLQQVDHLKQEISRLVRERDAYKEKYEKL
Description: as §1

MAFB = MAFB (Homo sapiens, UniProt Q9Y5Q3); design: made in house; settings: Kd, mean or single
Description: as §1

NFE2L1 = NFE2L1 (Homo sapiens, UniProt Q14494); design: made in house; settings: Kd, mean or single
Chain of NFE2L1 (Q14494 654-717 limits assumed): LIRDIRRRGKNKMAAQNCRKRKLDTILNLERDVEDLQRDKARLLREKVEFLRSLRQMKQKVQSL
Description: as §1

BACH2 = BACH2 (Homo sapiens, UniProt Q9BYV9); design: made in house; settings: Kd
Chain of BACH2 (Q9BYV9 646-709 limits assumed): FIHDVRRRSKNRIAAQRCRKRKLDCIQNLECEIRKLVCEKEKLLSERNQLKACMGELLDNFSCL
Description: as §1

ATF6 = ATF6 (Homo sapiens, UniProt P18850); design: made in house
Chain of ATF6 (P18850 306-369 limits assumed): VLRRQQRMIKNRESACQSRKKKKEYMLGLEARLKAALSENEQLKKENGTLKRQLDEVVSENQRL
Description: as §1

BATF3 = target: T1, BATF3 (Homo sapiens, UniProt Q9NR55); settings: Kd, mean or single
T1 construct: made in house
T1 sequence (Q9NR55 35-98 limits assumed): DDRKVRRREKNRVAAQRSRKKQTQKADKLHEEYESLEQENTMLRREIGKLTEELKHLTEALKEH
In short: (§2)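 Kd assignment relies on matching simulated to observed donor fluorescence across acceptor titrations in 1 mM TCEP-HCl, with target bZIP homodimer Kd values taken from earlier work using the same constructs and buffer.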

BATF = target: T2, BATF (Homo sapiens, UniProt Q16520); settings: Kd
T2 construct: made in house
T2 sequence (Q16520 26-89 limits assumed): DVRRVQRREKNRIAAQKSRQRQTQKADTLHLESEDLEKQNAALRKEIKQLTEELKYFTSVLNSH
In short: as §2

JUNB = target: T3, JUNB (Homo sapiens, UniProt P17275); settings: Kd, mean or single
T3 construct: made in house
T3 sequence (P17275 268-331 limits assumed): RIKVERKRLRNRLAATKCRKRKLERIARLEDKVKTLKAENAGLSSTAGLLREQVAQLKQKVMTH
In short: as §2

FOSL1 = target: T4, FOSL1 (Homo sapiens, UniProt P15407)
T4 construct: made in house
T4 sequence (P15407 105-168 limits assumed): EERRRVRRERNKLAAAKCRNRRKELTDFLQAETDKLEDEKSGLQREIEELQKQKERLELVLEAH
In short: as §2

CREB3L1 = target: T5, CREB3L1 (Homo sapiens, UniProt Q96BA8)
T5 construct: made in house
T5 sequence (Q96BA8 290-353 limits assumed): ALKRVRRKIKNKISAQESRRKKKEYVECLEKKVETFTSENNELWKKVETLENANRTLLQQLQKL
In short: as §2

[1] = 4°C, C-terminal fluorescein design as donor, TAMRA target titrated
[2] = 4°C, C-terminal rhodamine design, mean or single
[3] = 4°C, N-terminal rhodamine design, mean or single
[4] = 23°C, C-terminal fluorescein design as donor, TAMRA target titrated
[5] = 23°C, C-terminal rhodamine design, mean or single
[6] = 23°C, N-terminal rhodamine design, mean or single
[7] = 37°C, C-terminal fluorescein design as donor, TAMRA target titrated
[8] = 37°C, N-terminal rhodamine design, mean or single
[9] = 4°C, C-terminal rhodamine design
[10] = 4°C, N-terminal rhodamine design
[11] = 23°C, C-terminal rhodamine design
[12] = 23°C, N-terminal rhodamine design
[13] = 37°C, C-terminal rhodamine design
[14] = 37°C, N-terminal rhodamine design
[15] = 37°C, C-terminal rhodamine design, mean or single

Chain of BACH1 (O14867 557-620 limits assumed): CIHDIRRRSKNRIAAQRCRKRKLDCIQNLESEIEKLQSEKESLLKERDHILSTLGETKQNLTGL

Sequence: SIAATLEKEEANLEKMNKKLAAEIESLLKEKDKLESVLNYHE [JUN-d1]
- Kd (BACH1): > 1 µM
- Kd (BACH1; [1]): > 1 µM
- Kd (BACH1; [2]): > 1 µM
- Kd (BACH1; [3]): > 1 µM
- Kd (BACH1; [4]): > 1 µM
- Kd (BACH1; [5]): > 1 µM
- Kd (BACH1; [6]): > 1 µM
- Kd (BACH1; [7]): > 1 µM
- Kd (BACH1; [8]): > 1 µM
- Kd (MAF): > 1 µM
- Kd (MAF; [2]): > 1 µM
- Kd (MAF; [3]): > 1 µM
- Kd (MAF; [5]): > 1 µM
- Kd (MAF; [6]): > 1 µM
- Kd (MAF; [8]): > 1 µM
- Kd (MAFB; [9]): 0.326 µM
- Kd (MAFB; [10]): > 1 µM
- Kd (MAFB; [11]): > 1 µM
- Kd (MAFB; [12]): > 1 µM
- Kd (MAFB; [13]): > 1 µM
- Kd (MAFB; [14]): > 1 µM
- Kd (NFE2L1; [9]): > 5 µM
- Kd (NFE2L1; [10]): > 1 µM
- Kd (NFE2L1; [11]): > 5 µM
- Kd (NFE2L1; [12]): > 1 µM
- Kd (NFE2L1; [13]): > 5 µM
- Kd (NFE2L1; [14]): > 1 µM
- Kd (BACH2; [1]): > 1 µM
- Kd (BACH2; [2]): > 5 µM
- Kd (BACH2; [3]): > 1 µM
- Kd (BACH2; [4]): > 1 µM
- Kd (BACH2; [5]): > 1 µM
- Kd (BACH2; [6]): > 1 µM
- Kd (BACH2; [7]): > 1 µM
- Kd (BACH2; [15]): > 1 µM
- Kd (BACH2; [8]): > 1 µM
- Kd (ATF6): > 1 µM
- Kd (ATF6; [1]): > 1 µM
- Kd (ATF6; [2]): > 1 µM
- Kd (ATF6; [3]): > 1 µM
- Kd (ATF6; [4]): > 1 µM
- Kd (ATF6; [5]): > 1 µM
- Kd (ATF6; [6]): > 1 µM
- Kd (ATF6; [7]): > 1 µM
- Kd (ATF6; [8]): > 1 µM
- Kd (BATF3; [9]): 0.362 µM
- Kd (BATF3; [10]): > 1 µM
- Kd (BATF3; [11]): > 5 µM
- Kd (BATF3; [12]): > 1 µM
- Kd (BATF3; [13]): > 1 µM
- Kd (BATF3; [14]): > 1 µM
- Kd (BATF; [1]): > 1 µM
- Kd (BATF; [2]): 0.2 to 1 µM
- Kd (BATF; [3]): > 1 µM
- Kd (BATF; [4]): > 1 µM
- Kd (BATF; [5]): > 1 µM
- Kd (BATF; [6]): > 1 µM
- Kd (BATF; [7]): > 1 µM
- Kd (BATF; [15]): > 1 µM
- Kd (BATF; [8]): > 1 µM
- Kd (JUNB; [9]): 0.001 µM
- Kd (JUNB; [10]): 0.0027 µM
- Kd (JUNB; [11]): 0.0084 µM
- Kd (JUNB; [12]): 0.053 µM
- Kd (JUNB; [13]): 0.051 µM
- Kd (JUNB; [14]): 0.85 µM
- Kd (FOSL1): > 1 µM
- Kd (FOSL1; [2]): > 1 µM
- Kd (FOSL1; [3]): > 1 µM
- Kd (FOSL1; [5]): > 1 µM
- Kd (FOSL1; [6]): > 1 µM
- Kd (FOSL1; [8]): > 1 µM
- Kd (CREB3L1): > 1 µM
- Kd (CREB3L1; [2]): > 1 µM
- Kd (CREB3L1; [3]): > 1 µM
- Kd (CREB3L1; [5]): > 1 µM
- Kd (CREB3L1; [6]): > 1 µM
- Kd (CREB3L1; [8]): > 1 µM

— paper PMC4335062, “Data-Driven Prediction and Design of bZIP Coiled-Coil Interactions” (PLoS Computational Biology, 2015)
